In article PMC6177439, “Peptide-oligonucleotide conjugates exhibiting pyrimidine-X cleavage specificity efficiently silence miRNA target acting synergistically with RNase H” (Scientific Reports, 2018):

Columns and labels:
[1] = tested on: 96 nts fragment of HIV-1 RNA; design: method as in PMID 15047859, PMID 16615805; conditions: non-complementary RNA substrates; cited from earlier work
miR-17 [2] = assay: RNA cleavage assay, miR-17; type: biochemical; conditions: miR-17 1 µM, conjugate 20 µM, 37 °C, 24 h
Description: (§1) The reaction mixture (5 µl) contained 10^5 cpm (Cherenkov’s counting) of [^32P]-RNA, 1 μM unlabeled RNA, and one of the conjugates at a concentration ranging from 1 to 100 μM, 50 mM Tris-HCl, pH 7.0, 0.2 M KCl, and 1 mM EDTA. […] To identify cleavage sites, imidazole and T1-ladders produced by partial RNA cleavage with 2 M imidazole buffer (pH 7.0)[41] and with RNase T1[42], respectively, were run in parallel. To obtain quantitative data, gels were dried and analyzed using Molecular Imager FX (Bio-Rad, USA). The total extent of RNA cleavage and the extent of RNA cleavage at each individual site were determined with Quantity One software.

miR-21 [3] = assay: RNA cleavage assay, miR-21; type: biochemical; conditions: miR-21 1 µM, conjugate 100 µM, 37 °C, 0-144 h
Description: as §1

miR-21^hybrid = assay: RNA cleavage assay, miR-21^hybrid; type: biochemical; conditions: RNA 1 µM, conjugate 20 µM, 37 °C, 24 h time point
Description: as §1

miR-21 [4] = assay: Gel-retardation assay, hybridization with miR-21; type: binding; conditions: at equimolar concentration and higher; miR-21 1 µM, 0.5-10 µM oligonucleotide or conjugate, 37 °C, 1 h, 50 mM Tris-HCl pH 7.0, 0.2 M KCl, 1 mM EDTA, 15% native PAAG
Description: The samples were loaded onto the running gel immediately after quenching the reaction with an interval of 1 min. […] To obtain quantitative data, gels were dried and analyzed using Molecular Imager FX (Bio-Rad, USA). The extent of binding of oligonucleotide to miR-21 was determined using Quantity One software as a ratio of radioactivity measured in the complex to the total radioactivity applied onto the gel lane.

melanoma B16 cells = assay: xCELLigence real-time analysis of cell proliferation; type: cell-based, murine; conditions: 1 µM with Lipofectamine 2000, 120 h; for cell index: untreated control cell index 5
Description: Proliferation experiments were performed using an xCELLigence real-time cell analysis (RTCA) system (ACEABiosciences, USA) in an atmosphere of 5% CO2 at 37 °C. B16 melanoma cells were seeded at a concentration of 5 × 10^3 cells per well of 16-well E-Plates. The following day, the cells were transfected with conjugate 4, control conjugate 7 or oligonucleotide 4 at 1 µM concentration using Lipofectamine™ 2000 (Invitrogen, USA). In 4 h after transfection, the medium in the wells was replaced with DMEM medium containing 10% of FBS and 1% of antibiotics antimycotic solution. Cell proliferation experiments were run for 120 h and Cell Index was monitored every 30 min for the whole experiment duration. Four replications of each cell densities were used in the cell proliferation experiment.

miR-17 [5] = assay: miR-17 level in B16 cells by stem-loop qPCR; type: cell-based, murine; conditions: for decrease in the miR-17 level: 24 h after transfection with Lipofectamine 2000, 0.5 and 1 µM, normalized to U6, mean of three independent experiments
Description: Murine B16 melanoma cells (1.5–1 × 10^5 per well of 24-well plate) were pre-seeded in DMEM containing 10% FBS a day before transfection and were incubated at 37 °C in a humidified atmosphere with 5% CO2. Before the transfection, the medium was replaced by serum-free and antibiotic-free DMEM, and cells were incubated for 4 h with 0.05–1 µM of conjugate 4 precomplexed with Lipofectamine 2000 (Invitrogen, USA) in Opti-MEM medium according to manufacturer’s instructions. Then, the medium was replaced by culture medium containing 10% FBS and 1% antibiotic antimycotic solution ([…] streptomycin, 10000 IU/mL penicillin, and 25 µg/mL amphotericin), and the cells were cultivated for 24 h under the same conditions. After 24 h, total RNA was isolated from the cells using TRIzol Reagent (Invitrogen, USA) according to the manufacturer’s protocol.
Expression of miR-17, miR-21, miR-18a and let-7g in B16 cells was analyzed using stem-loop PCR technology[43],[44]. cDNA synthesis was carried out using SuperScript III reverse transcriptase (SSIII RT, Invitrogen, USA) as previously described. The RT and PCR primers used in the study are presented in Table S1 (Supplementary information). PCR amplification was carried out in a total volume of 20 µl, using Maxima Hot Start Taq DNA polymerase (Thermo Scientific, USA), 1 × PCR Buffer, 1.5 mM MgCl2, 0.2 mM dNTPs, 1 × EvaGreen (Biotium, Hayward, USA), and […] of PCR sense and antisense primers. The reaction was performed with initial preheating at 94 °C for 4 min and 40 cycles of 94 °C for 40 s, 61 °C for 30 s, and 72 °C for 30 s, followed by melting point determination. The obtained PCR data were analyzed using standard Bio-Rad iQ5 v.2.0 software. For each sample, the threshold cycle (Ct) was determined. Quantitative assessment of the level of transcripts representation and relative miRNA expression was performed by comparing the Ct values for miR-17 and a reference U6.

let 7-g = assay: Off-target let-7g level in B16 cells by stem-loop qPCR; type: cell-based, murine; conditions: 1 µM, 24 h, Lipofectamine 2000, normalized to U6
miR-21 [6] = assay: Off-target miR-21 level in B16 cells by stem-loop qPCR; type: cell-based, murine; conditions: 1 µM, 24 h, Lipofectamine 2000, normalized to U6
miR-18a = assay: Off-target miR-18a level in B16 cells by stem-loop qPCR; type: cell-based, murine; conditions: 1 µM, 24 h, Lipofectamine 2000, normalized to U6
E2F1 = assay: Western blot of miR-17 protein target E2F1 in B16 cells; type: cell-based, murine; conditions: 1 µM, 72 h after transfection, GAPDH internal control
Description: Cell lysates were separated in 12.5% SDS-PAGE and transferred to a PVDF membrane using a semi-dry transfer. The membranes were blocked for 1 h in 3% nonfat dried milk in TBST (20 mM Tris- HCl, pH 7.6,137mMNaCl, 0.1% Tween), and incubated with primary antibodies against E2F1 (ab179445, Abcam, UK, 1:500) and reference protein GAPDH (ab9485, Abcam, UK, 1:1000) at +4 °C for night. After three washes with TBST, membranes were incubated with secondary HRP-conjugated goat anti-rabbit antibodies (ab6721, Abcam, UK) at room temperature for 1 h. After three washes with TBST luminescence detection was performed by Versadoc 4000 MP (Bio-Rad, USA) using Chemiluminescent reagent kit (Abcam, USA). Data were analyzed using GelPro 4.0 software (Media Cybernetics, USA).

miR-17 [7] = assay: Cleavage of duplexes miR-17/ON and miR-17/conjugate by RNase H; type: biochemical; conditions: miR-17 10 µM, conjugate 5 µM, 37 °C
Description: The reaction mixture (10 µl) contained 10^5 cpm (Cherenkov’s counting) of [^32P]-miR-17, 10 µM unlabeled miR-17, oligonucleotide 4 or conjugate 4 at a concentration of 5 µM, 50 mM Tris-HCl, pH 7.0, 0.2 M KCl, and 1 mM EDTA was incubated at 37 °C for 20 min. Then, RNase H (Thermo Scientific, USA) was added to the reaction mixture to a final concentration 100 U/ml and incubated at 37 °C. At different time points, 30 min and 1, 2, 4, 8, and 24 h, an aliquot was taken and the reaction was quenched by precipitation of RNA with 2% LiClO4 in acetone. RNA cleavage products were analyzed by electrophoresis in denaturing gel as described above.

NH2-Gly(ArgLeu)4-TCAA [short peptide-oligonucleotide conjugate, small chemical ribonuclease used as catalytic construction]
cleavage specificity [1]: Pyr-A cleavage specificity

NH2—Gly(ArgLeu)4—P— (DEG)2—CTGTAAGCACTTTGGTCAGCGAAAGCTGAC [conjugate 6]
cleavage of miR-17 at a 20-fold excess of conjugate (miR-17 [2]): complete loss of ribonuclease activity

NH2—Gly(ArgLeu)4—P—TCAA—(DEG)2—AGT CTG ATA AGC TA [conjugate 1, peptide-oligonucleotide conjugate (miRNase) targeted to miR-21, linear 14 nt oligonucleotide, double DEG linker]
cleavage efficiency of miR-21 at a 100-fold excess of conjugate (miR-21 [3]): 50%
total extent of miR-21^hybrid cleavage at a 20-fold excess of conjugates (miR-21^hybrid): 55%
hybridization (binding) efficiency with miR-21 (miR-21 [4]): 25%

NH2—Gly(ArgLeu)4—P—TCAA—(DEG)2—CTGTAAGCACTTTGGTCAGCGAAAGCTGAC [conjugate 4]
cleavage of miR-17 at a 20-fold excess of conjugate (miR-17 [2]): 9%
cell index (melanoma B16 cells): 1
fold decrease of growth rate / inhibition of cell proliferation (melanoma B16 cells; versus untreated cells): 5 fold
advantage in inhibition efficiency in comparison with antisense oligonucleotide 4 (miR-17 [5]): 2 fold
decrease in the miR-17 level (miR-17 [5]): 80%
lowest concentration with statistically significant reduction of miR-17 level (miR-17 [5]; 24 h after transfection, range 0.05-1 µM): 0.1 µM
expression level of let 7-g versus controls (let 7-g): no statistically significant differences
expression level of miR-21 versus controls (miR-21 [6]): no statistically significant differences
expression level of miR-18a versus controls (miR-18a): no statistically significant differences
increase of the level of E2F1 protein as compared with control (E2F1): 2.2 fold
increase of conjugate activity (miR-17 cleavage at conjugate sites) in the presence of RNase H (miR-17 [7]; RNase H 100 U/ml): 11 fold
miR-17 cleavage at RNase H sites during the first 2 h, with RNase H (miR-17 [7]; RNase H 100 U/ml, 2 h): 45%
miR-17 cleavage at sites C17-A18 and U21-A22 after 4 h, with RNase H (miR-17 [7]; RNase H 100 U/ml, 4 h): 47%
miR-17 destroyed after 8 h, with RNase H (miR-17 [7]; RNase H 100 U/ml, 8 h): 95%
miR-17 cleavage by conjugate alone under two-fold excess of RNA (miR-17 [7]; no RNase H, 24 h): 9%

NH2—Gly(ArgLeu)4—P—TCAA—(DEG)2—TCTGATAAGCTACGTAGCGAAAGCTACG [conjugate 2]
cleavage efficiency of miR-21 at a 100-fold excess of conjugate (miR-21 [3]): 50%
total extent of miR-21^hybrid cleavage at a 20-fold excess of conjugates (miR-21^hybrid): 85%
hybridization (binding) efficiency with miR-21 (miR-21 [4]): 48%

NH2—Gly(ArgLeu)4—P—TCAA—(DEG)—CTGTAAGCACTTTGGTCAGCGAAAGCTGAC [conjugate 5, miRNase targeted to miR-17, as conjugate 4 with single DEG linker]
cleavage of miR-17 at a 20-fold excess of conjugate (miR-17 [2]): 3%

NH2—Gly(ArgLeu)4—P—TCAA—(TrEG)2—CGATAAATAACGCGCAAGTCAGCGAAAGCTGACTTG [conjugate 7, control conjugate addressed to luciferase mRNA]
cell index (melanoma B16 cells): 3.2
decrease in the miR-17 level (miR-17 [5]): does not evoke any statistically significant reduction
increase of the level of E2F1 protein as compared with control (E2F1): no statistically significant change
